Experiments:
[1] = tested on: PDE1A present in fractions 6 and 11; assay: PDE assay on anion exchange fractions 6 and 11 of taste tissue; format: biochemical, bovine
Description: (§1) Preparation of taste extract. 1–2 gm circumvallate taste papillae or fungiform papillae from fresh bovine tongues were dissected and homogenized in a buffer containing 20 mMTris-Cl pH 7.5, 1 mM EDTA, 1 mM DTT, 10% glycerol, 10 μg/ml leupeptin, 10 μg/ml aprotinin, 100 μM AEBSF and 10 μg/ml pepstatin. Homogenization was carried out using a Polytron homogenizer. The homogenate was first spun at 2500×g for 10 minutes at 4° C. and the resulting supernatant was spun at 100,000×g for 30 minutes at 4° C. The supernatant of the second spin was checked for PDE activity and fractionated by anion exchange chromatography.
(§2) Anion Exchange Chromatography. Supernatant prepared from taste papillae was loaded at 1 ml/min on a DEAE-10 anion exchange column which had been equilibrated with buffer A (20 mM Tris-HCl pH 7.5, 2 mM EDTA, 20 mM β-mercapto ethanol). The column was washed in buffer A for 15 minutes or until protein was no longer detected in the buffer. Bound protein activity was eluted at a flow rate of 2 ml/min with a linear gradient (0–100%) of buffer B (buffer A+1 M NaCl) over 45 minutes Fractions were collected at 4° C. and assayed for PDE Activity. Aliquots of each fraction were boiled in sample buffer for Western blot analysis.
(§3) PDE Assays and CaM Affinity on Beads. PDE assays followed established procedures (Sonnenburg et al., Methods 1998, 14:3–19). All assays were performed at 30° C. using either 1 μM cAMP or between 0.2 and 1 μM cGMP as substrate in the presence of 1 mM EGTA (basal), 1 mM CaCl2 plus 4 μg/ml CaM (Ca^2+/CaM) or 100 μM effector activation peptide (Gαt-rod) peptide.
Specificity of the calmodulin affinity beads was checked by doing an affinity chromatography purification in the presence of 2 mM EGTA instead of CaCl2. The beads were incubated with the appropriate fractions at 4° C. for 1 hour, then spun for 2 minutes and the supernatant and pellet kept separately. The beads were then washed in the same buffer and resuspended in the presence of protease inhibitors. PDE activity was checked on the beads and in the supernatant. CaCl2 was compensated in the PDE assays when the CaM affinity was done in presence of excess EGTA.

[2] = tested on: PDE 1; details: Yan et al., J. Biol. Chem. 1996; cited from earlier work
[3] = target: T1, PDE1C3 (Homo sapiens, UniProt Q14123); assay: PDE assay of recombinant PDE over-expressed in HEK-293 cells; format: biochemical; details: HEK-293 cell homogenate; cGMP substrate; 100 μM peptide or 1 mM CaCl2 and 4 μg/ml CaM
T1 construct: made in house; host or cells: HEK 293 cells, transient transfection, sonicated lysate
T1 sequence (Q14123 whole entry): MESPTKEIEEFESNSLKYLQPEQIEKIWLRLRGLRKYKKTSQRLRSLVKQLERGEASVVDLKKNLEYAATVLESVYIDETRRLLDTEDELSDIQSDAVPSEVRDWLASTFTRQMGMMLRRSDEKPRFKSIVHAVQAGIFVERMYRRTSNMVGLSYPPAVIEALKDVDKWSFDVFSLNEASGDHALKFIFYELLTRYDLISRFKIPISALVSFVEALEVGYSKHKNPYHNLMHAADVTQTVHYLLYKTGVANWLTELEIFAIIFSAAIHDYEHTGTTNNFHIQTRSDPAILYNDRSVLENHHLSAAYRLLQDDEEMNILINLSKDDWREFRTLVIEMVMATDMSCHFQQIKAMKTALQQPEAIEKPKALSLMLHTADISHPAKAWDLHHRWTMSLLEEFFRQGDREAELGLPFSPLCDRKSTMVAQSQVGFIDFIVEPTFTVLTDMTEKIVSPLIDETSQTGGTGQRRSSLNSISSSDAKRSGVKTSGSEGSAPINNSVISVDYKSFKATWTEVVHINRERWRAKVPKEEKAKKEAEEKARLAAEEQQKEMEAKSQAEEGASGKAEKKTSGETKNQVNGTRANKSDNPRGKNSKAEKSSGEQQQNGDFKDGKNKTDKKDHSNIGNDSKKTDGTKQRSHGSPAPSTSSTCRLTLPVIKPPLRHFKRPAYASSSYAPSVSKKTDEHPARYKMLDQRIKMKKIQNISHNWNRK
Description: as §3
(§4) Over-expression and Assay of Recombinant PDEs. HEK 293 cells were cultured in Eagle's MEM with 2 mM […], Earle's balanced salt solution, 1.5 g/L sodium bicarbonate, 0.1 mM non-essential amino acids, 1 mM sodium pyruvate, and 10% heat-inactivated fetal calf serum. HEK 293 cells were seeded at 0.5×10^6 per well in a 6 well dish. After 24 hours, cells were transfected with DNA constructs using Gene Porter (Gene Therapy Systems), a lipid-based transfection reagent. Cells were transfected with 6 μg DNA (PDE1A1, PDE1A2 or PDE1C3) and 30 μl transfection reagent in serum free media in a volume of 1 ml. After 5 hours, the cells were supplemented with 1 ml media containing twice serum. 24 hours later, the cells were harvested by rinsing twice with PBS, scraping the cells into 200 μl of buffer containing 20 mM Tris-Cl pH 7.5, protease inhibitors (Sigma P- 8340), 1 mM 4-(2-aminoethyl) benzenesulfonyl fluoride (AEBSF), 15 μM pepstatin A, 14 μM trans-epoxysuccinyl-L-leucylamido(4-guanidino) butane (E-64), 40 μM bestatin, 22 μM leupeptin, and 0.8 μM aprotinin. Cells were sonicated in 3 five second bursts at approximately 10 Watts, and the lysates were used as the source of enzyme in the PDE assay.

[4] = target: T2, PDE1A2 (Bos taurus, UniProt P14100); assay: as above; format: biochemical; details: HEK-293 cell homogenate; cGMP substrate; 100 μM peptide or 1 mM CaCl2 and 4 μg/ml CaM
T2 construct: made in house; host or cells: HEK 293 cells, transient transfection, sonicated lysate
T2 sequence (P14100 whole entry): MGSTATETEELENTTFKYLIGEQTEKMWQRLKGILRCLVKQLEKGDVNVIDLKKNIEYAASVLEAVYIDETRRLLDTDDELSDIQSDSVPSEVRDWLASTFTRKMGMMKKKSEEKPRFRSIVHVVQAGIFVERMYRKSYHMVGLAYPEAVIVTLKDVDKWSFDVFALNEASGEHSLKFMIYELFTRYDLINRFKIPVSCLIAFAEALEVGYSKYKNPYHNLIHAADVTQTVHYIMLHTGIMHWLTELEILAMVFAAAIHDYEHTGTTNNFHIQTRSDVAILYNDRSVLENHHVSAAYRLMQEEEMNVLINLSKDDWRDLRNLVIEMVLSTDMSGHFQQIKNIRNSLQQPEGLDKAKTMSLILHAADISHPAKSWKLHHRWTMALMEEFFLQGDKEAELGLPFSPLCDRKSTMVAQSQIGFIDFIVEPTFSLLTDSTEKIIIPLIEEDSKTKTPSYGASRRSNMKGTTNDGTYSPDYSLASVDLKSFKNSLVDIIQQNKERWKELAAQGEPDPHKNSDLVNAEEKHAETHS
Description: as §3, §4

[5] = target: T3, PDE1A1 (Bos taurus, UniProt P14100); assay: as above; format: biochemical; details: HEK-293 cell homogenate; cGMP substrate; 100 μM peptide or 1 mM CaCl2 and 4 μg/ml CaM
T3 construct: made in house; host or cells: HEK 293 cells, transient transfection, sonicated lysate
T3 sequence (P14100 1-514 isoform P14100-2): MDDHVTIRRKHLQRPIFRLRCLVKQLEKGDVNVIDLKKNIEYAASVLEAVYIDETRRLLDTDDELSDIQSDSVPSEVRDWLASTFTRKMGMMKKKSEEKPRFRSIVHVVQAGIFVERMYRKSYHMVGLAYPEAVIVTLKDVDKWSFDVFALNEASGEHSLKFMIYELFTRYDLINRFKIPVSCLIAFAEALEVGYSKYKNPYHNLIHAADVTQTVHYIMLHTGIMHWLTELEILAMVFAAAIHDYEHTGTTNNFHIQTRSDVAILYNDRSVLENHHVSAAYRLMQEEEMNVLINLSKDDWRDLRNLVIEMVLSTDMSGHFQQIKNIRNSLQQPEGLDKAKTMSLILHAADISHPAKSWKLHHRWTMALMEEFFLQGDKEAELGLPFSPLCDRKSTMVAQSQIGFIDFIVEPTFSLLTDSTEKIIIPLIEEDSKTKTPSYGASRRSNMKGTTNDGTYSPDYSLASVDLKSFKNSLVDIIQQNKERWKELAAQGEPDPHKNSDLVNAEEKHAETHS
Description: as §3, §4

[6] = tested on: PDEs in bovine taste tissue fractions; assay: PDE assay across anion exchange fractions of taste papillae extract; format: biochemical; details: 100 μM peptide or 1 mM CaCl2 and 4 μg/ml CaM; for stimulation of cGMP hydrolytic activity: 1 μM cGMP; for stimulation of cAMP hydrolysis: 1 μM cAMP
Description: as §1, §2, §3

Molecule	inhibition of peptide stimulated activity of PDE1A bound to calmodulin beads ([1]; PDE1A bound to calmodulin beads, Gαt-rod peptide stimulated)	inhibition of peptide stimulated PDE activity ([1]; fractions 6 and 11, 1 μM cGMP, 100 μM Gαt-rod peptide)	inhibition of calmodulin stimulated PDE activity ([1]; fractions 6 and 11, 1 μM cGMP, 1 mM CaCl2 and 4 μg/ml CaM)	IC50 [2]	stimulation of recombinant PDE activity [3]	stimulation of recombinant PDE activity [4]	stimulation of recombinant PDE activity [5]	stimulation of PDE activity ([1]; fractions 6 and 11, 100 μM peptide, 1 μM cGMP)	stimulation of cGMP hydrolytic activity ([6]; first peak, fractions 6–7)	stimulation of cAMP hydrolysis ([6]; first three peaks (fractions 6–7; 10–12; 13–15))	stimulation of cAMP hydrolysis ([6]; fourth peak, fractions 19–23 (PDE4))	stimulation of cGMP hydrolytic activity ([6]; fourth peak, fractions 21–23)	stimulation of cGMP hydrolytic activity ([6]; second peak, fractions 10–12)	stimulation of cGMP hydrolytic activity ([6]; third peak, fractions 13–15)
CN1C(=O)c2[nH]c(Cc3ccc(C(F)(F)F)cc3)nc2N2C1=N[C@@H]1CCC[C@@H]12 [SCH 51866]	also inhibited peptide stimulated activity of PDE1A bound to calmodulin beads	also inhibited peptide stimulated activity	90%	100 nM	–	–	–	–	–	–	–	–	–	–
Gαt-rod peptide: peptide corresponding to the PDE effector-interaction-region of rod transducin (residues 293–314 of transducin Gα) (EDAGNYIKVQFLELNMRRDVKE)	–	–	–	–	stimulated	stimulated	stimulated	stimulated	activated	show stimulation	neither Ca^2+/CaM nor Gαt-rod peptide dependent	not stimulated above the basal level	activated	greatest activity when stimulated
